The text below walks through data of patent US10760110B2, “Antibiotic testing and screening system” (priority 2017, dated 2020).

Bounds are passed on as bounds.

The test system of assay [1] is A. baumannii KW1 strains with aminoglycoside resistance plasmids. Put plainly: Etest MIC of aminoglycosides, aminoglycoside-modifying enzyme or 16S rRNA methylase (Table 19). Type of assay: cell-based, Acinetobacter baumannii. How it is done:
(§1) DNA fragments of the resistance genes along with their flanking regions were amplified from clinical plasmids via PCR with specific primer pairs. The resulting PCR fragments were digested and then cloned into the plasmid pYMAb5 or pYMAb5Tc. The resulting plasmids were then transformed into A. baumannii KW1 via electroporation.
(§2) The MICs of antibiotics were determined using the Etest (Biodisk AB, Sweden) according to the manufacturer's instructions. The MICs from the Etest, which fall between standard two-fold dilutions, were rounded up to the next highest two-fold value. The MICs of ceftazidime and cefotaxime against K. pneumoniae NVT1001 harbouring the pACYC177 plasmid with blaOXA-48 were further determined using a broth microdilution test according to the recommendations of the CLSI,^25 and the results were interpreted according to the breakpoints established by the CLSI in 2017.^25 Meanwhile, due to the lack of CLSI breakpoints in 2016 and 2017, the results for cephalothin were interpreted according to the breakpoints established by the CLSI in 2015,^26 and the results for moxifloxacin were interpreted according to the breakpoints established by the EUCAST in 2017.^27

The test system of assay [2] is K. pneumoniae NVT1001 strains with aminoglycoside resistance plasmids. The experiment in a line: Etest MIC of aminoglycosides, aminoglycoside-modifying enzyme or 16S rRNA methylase (Table 13). Type of assay: cell-based, Klebsiella pneumoniae. Here is the method: DNA fragments of the resistance genes along with their flanking regions were amplified from clinical plasmids via PCR with specific primer pairs. The resulting PCR fragments were digested and then cloned into the plasmid pACYC177 or pACYC184. The resulting plasmids were then transformed into K. pneumoniae strain NVT1001 via electroporation. The recombinant bacteria were plated onto LB agar plates containing kanamycin (50 mg/L) or chloramphenicol (50 mg/L), and the presence of the cloned gene was confirmed via PCR and DNA sequencing.
as §2

Assay [3] concerns A. baumannii KW1 strains with β-lactamase plasmids. The experiment in a line: Etest MIC of β-lactams, extended-spectrum β-lactamase, AmpC β-lactamase or carbapenemase (Table 18). Type of assay: cell-based, Acinetobacter baumannii. Here is the method: as §1, §2

In the case of `CN[C@@H]1[C@H](O)[C@H](NC)[C@H]2O[C@@]3(O)C(=O)C[C@@H](C)O[C@H]3O[C@@H]2[C@H]1O` [SPT], the MIC (as a rule, the least concentration at which growth counts as inhibited) in assay [1] (KW1, no supplemental plasmid) was 24 µg/mL; in assay [1] (KW1 with AAC(3)-IIa on pYMAb5Tc), 24 µg/mL; in assay [1] (KW1 with ANT(2”)-Ia on pYMAb5Tc), 24 µg/mL; in assay [1] (KW1 with ANT(3”)-Ia on pYMAb5Tc), 192 µg/mL; in assay [1] (KW1 with APH(3')-Ia on pYMAb5Tc), 24 µg/mL; in assay [1] (KW1 with APH(3')-VIa on pYMAb5Tc), 24 µg/mL. In addition, the minimum inhibitory concentration (MIC) stood at 24 µg/mL in assay [1] (KW1 with ArmA on pYMAb5Tc); 24 µg/mL in assay [1] (KW1 with shuttle vector pYMAb5Tc); 16 mg/L in assay [2] (NVT1001, no supplemental plasmid); 16 mg/L in assay [2] (NVT1001 with AAC(3)-IId on pACYC184); 16 mg/L in assay [2] (NVT1001 with AAC(3)-IVa on pACYC184); 16 mg/L in assay [2] (NVT1001 with AAC(6′)-Ib-cr on pACYC184). The MIC in assay [2] (NVT1001 with ANT(2″)-Ia on pACYC184) is listed as 16 mg/L; in assay [2] (NVT1001 with ANT(3″)-Ia on pACYC184), above 1024 mg/L; in assay [2] (NVT1001 with APH(3′)-IIa on pACYC184), 16 mg/L; in assay [2] (NVT1001 with APH(3′)-Ia on pACYC184), 16 mg/L; in assay [2] (NVT1001 with ArmA on pACYC184) it was 16 mg/L; in assay [2] (NVT1001 with RmtB on pACYC184), 16 mg/L. The minimal inhibitory concentration (MIC) in assay [2] (NVT1001 with StrA-StrB on pACYC184) is recorded as 16 mg/L.

Turning to `C[C@@H](O)[C@H]1C(=O)N2C(C(=O)O)=C(S[C@@H]3CN[C@H](C(=O)N(C)C)C3)[C@H](C)[C@H]12` [MP], the MIC was 0.5 µg/mL in assay [3] (KW1, no supplemental plasmid); 3 µg/mL in assay [3] (KW1 with ADC-30 on pYMAb5); 2 µg/mL in assay [3] (KW1 with CTX-M-15 on pYMAb5); 12 µg/mL in assay [3] (KW1 with IMP-1 on pYMAb5); above 32 µg/mL in assay [3] (KW1 with NDM-1 on pYMAb5); above 32 µg/mL in assay [3] (KW1 with OXA-23 on pYMAb5). Moreover, the MIC in assay [3] (KW1 with OXA-58 on pYMAb5) is 6 µg/mL; in assay [3] (KW1 with OXA-66 on pYMAb5) it was 8 µg/mL; in assay [3] (KW1 with OXA-72 on pYMAb5), above 32 µg/mL; in assay [3] (KW1 with VEB-3 on pYMAb5), 0.5 µg/mL; in assay [3] (KW1 with VIM-1 on pYMAb5), above 32 µg/mL; in assay [3] (KW1 with shuttle vector pYMAb5), 0.5 µg/mL.

Regarding `C[C@H]1[C@H](NC(=O)/C(=N\OC(C)(C)C(=O)O)c2csc(N)n2)C(=O)N1S(=O)(=O)O` [ATM], the minimal inhibitory concentration (MIC) in assay [3] (KW1, no supplemental plasmid) was 16 µg/mL; in assay [3] (KW1 with ADC-30 on pYMAb5), 64 µg/mL; in assay [3] (KW1 with CTX-M-15 on pYMAb5), above 256 µg/mL; in assay [3] (KW1 with IMP-1 on pYMAb5), 16 µg/mL; in assay [3] (KW1 with NDM-1 on pYMAb5), 12 µg/mL; in assay [3] (KW1 with OXA-23 on pYMAb5), 16 µg/mL. Further, the MIC in assay [3] (KW1 with OXA-58 on pYMAb5) is 16 µg/mL; in assay [3] (KW1 with OXA-66 on pYMAb5) it was 12 µg/mL; in assay [3] (KW1 with OXA-72 on pYMAb5) it was 16 µg/mL; in assay [3] (KW1 with VEB-3 on pYMAb5), above 256 µg/mL; in assay [3] (KW1 with VIM-1 on pYMAb5), 12 µg/mL; in assay [3] (KW1 with shuttle vector pYMAb5), 12 µg/mL.

On to `C[C@@H](O)[C@H]1C(=O)N2C(C(=O)O)=C(S[C@@H]3CN[C@H](CNS(N)(=O)=O)C3)[C@H](C)[C@H]12` [DOR], for which the MIC was 0.38 µg/mL in assay [3] (KW1, no supplemental plasmid); 4 µg/mL in assay [3] (KW1 with ADC-30 on pYMAb5); 1.5 µg/mL in assay [3] (KW1 with CTX-M-15 on pYMAb5); 16 µg/mL in assay [3] (KW1 with IMP-1 on pYMAb5); above 32 µg/mL in assay [3] (KW1 with NDM-1 on pYMAb5); above 32 µg/mL in assay [3] (KW1 with OXA-23 on pYMAb5). Moreover, the MIC in assay [3] (KW1 with OXA-58 on pYMAb5) is 6 µg/mL; in assay [3] (KW1 with OXA-66 on pYMAb5), 8 µg/mL; in assay [3] (KW1 with OXA-72 on pYMAb5), above 32 µg/mL; in assay [3] (KW1 with VEB-3 on pYMAb5), 0.38 µg/mL; in assay [3] (KW1 with VIM-1 on pYMAb5) it was above 32 µg/mL; in assay [3] (KW1 with shuttle vector pYMAb5) it was 0.38 µg/mL.
